Here are results for one molecule from US7994183B2, “Solid preparation comprising 2-[[6-[(3R)-3-amino-1-piperidinyl]-3,4-dihydro-3-methyl-2,4-dioxo-1(2H)-pyrimidinyl]methyl]-4-fluorobenzonitrile” (Takeda Pharmaceutical Company Limited, priority 2007, dated 2011).

The series is described as follows: storage stability of compound (A) succinate alone or mixed with additive; amount of analogs by HPLC (Experimental Example 1A). It is filed as physicochemical. Here is the method:
Comparative Examples 1A, 2A and 3A were preserved in a glass bottle with an opened cap at 40° C., 75% RH for 2 weeks, and the amount of analogs due to decomposition of compound (A) was measured, based on which the storage stability was evaluated.
The amounts of the analogs were measured by high performance liquid chromatography (HPLC) under the conditions of Table 11A. As a result, an analogue that specifically increases at relative retention time (RRT) of about 1.65 was observed.

For `Cn1c(=O)cc(N2CCC[C@@H](N)C2)n(Cc2cc(F)ccc2C#N)c1=O` [compound (A), 2-[[6-[(3R)-3-amino-1-piperidinyl]-3,4-dihydro-3-methyl-2,4-dioxo-1(2H)-pyrimidinyl]methyl]-4-fluorobenzonitrile], the “total amount of analogs (%)” value is, setting by setting: (40° C./75% RH 2 wk (with opened cap), glass bottle) 0.30%; (initial) 0.30%.
